Experimental data as given in PubChem BioAssay AID232 (DTP/NCI, 2004).
Values joined by “and” are separate entries in the source; they are usually repeats but may differ in a detail not shown here. Equal values may be shown once. Inconclusive results and toxic doses are left out. Numbered stars: 1 amine (or outer) side, 2 acyl side, 3 side chain; on linkers, the order of the positions; unused ones are H or OH. Bridge positions count the residues as written; N and C are the ends. Square brackets hold non-standard residues; d marks the D form. Peptide text beside a SMILES is read from it. I, II: the chains in the order shown. Actinocin(9to1) = Cc1c2oc3c(C)ccc(C(=O)[*:1])c3nc-2c(C(=O)[*:2])c(N)c1=O; aThr = C[C@H](O)[C@H](N)C(=O)O; NMeV = CN[C@H](C(=O)O)C(C)C; Sar = CNCC(=O)O

Tested on: Gardner 6C3HED lymphosarcoma ip, C3AKF1 mice, survival T/C
Experiment: NCI In Vivo Anticancer Drug Screen. Data for tumor model Lymphosarcoma Gardner 6C3HED (intraperitoneal) in C3AKF1 (CHKRF1) mice
Details: endpoint: survival time, mean or median, schedule: Q01DX010 (ip), higher = longer survival
Experimental: The antitumor activity of compounds was measured in mice bearing transplantable tumors. Survival or tumor size were measured and the results are expressed as the measurement made in the treated group (T) divided by the measurement made in the vehicle treated control group (C). The tumor model used in this assay is Lymphosarcoma Gardner 6C3HED (intraperitoneal) in C3AKF1 (CHKRF1) mice

[1] = dose: 8.0 mg/kg/injection, vehicle: saline
[2] = dose: 16.0 mg/kg/injection, vehicle: saline

Cc1c2oc3c(C)ccc(C(=O)N[C@@H]4C(=O)N[C@H](C(C)C)C(=O)N5CCC[C@H]5C(=O)N(C)CC(=O)N(C)[C@@H](C(C)C)C(=O)O[C@H]4C)c3nc-2c(C(=O)N[C@@H]2C(=O)N[C@H](C(C)C)C(=O)N3CCC[C@H]3C(=O)N(C)CC(=O)N(C)[C@@H](C(C)C)C(=O)O[C@H]2C)c(N)c1=O (I: [aThr][dV]P[Sar][NMeV] / II: [aThr][dV]P[Sar][NMeV]; ester I:1-I:C, II:1-II:C; linker I:N-II:N via Actinocin(9to1))
T/C (dose: 0.01 mg/kg/injection, vehicle: acid diluted with saline): 100 % of control and 110 % of control | T/C (dose: 0.03 mg/kg/injection, vehicle: acid diluted with saline): 120 % of control

Oc1cc(CN(CCCl)CCCl)c(O)cc1CN(CCCl)CCCl
T/C (dose: 0.63 mg/kg/injection, vehicle: saline): 113 % of control | T/C (dose: 2.5 mg/kg/injection, vehicle: saline): 168 % of control | T/C (dose: 5.0 mg/kg/injection, vehicle: saline): 91 % of control and 122 % of control

c1ccc(CNc2ncnc3[nH]ncc23)cc1
T/C [1]: 100 % of control and 119 % of control | T/C [2]: 104 % of control and 105 % of control | T/C (dose: 32.0 mg/kg/injection, vehicle: saline): 90 % of control and 95 % of control | T/C (dose: 64.0 mg/kg/injection, vehicle: saline): 90 % of control and 95 % of control

CCOC(N)=O
T/C (dose: 125.0 mg/kg/injection, vehicle: saline): 91 % of control and 100 % of control | T/C (dose: 500.0 mg/kg/injection, vehicle: saline): 95 % of control

CC(CCC(C)OS(C)(=O)=O)OS(C)(=O)=O (stereo not drawn)
T/C (dose: 2.0 mg/kg/injection, vehicle: saline): 100 % of control | T/C (dose: 4.0 mg/kg/injection, vehicle: saline): 104 % of control | T/C [1]: 104 % of control | T/C [2]: 116 % of control

CCN(CC)CCNc1ccc(C)c2sc3ccccc3c(=O)c12
T/C (dose: 12.5 mg/kg/injection, vehicle: saline): 100 % of control | T/C (dose: 25.0 mg/kg/injection, vehicle: saline): 114 % of control | T/C (dose: 50.0 mg/kg/injection, vehicle: saline): 91 % of control and 114 % of control
